Converted amounts (≈) assume the structure as drawn. Structures can show the parent of a compound that is named as a salt. The source made the active and inactive calls. No cut-off for these calls is given here.
Experiments:
Ribosome [1] = test: Induction of ribosome-mediated readthrough activity in rabbit reticulocyte lysate assessed as suppression of R245X mutation after 90 mins by dual luciferase reporter gene assay; settings: Oryctolagus cuniculus
Ribosome [2] = test: Induction of ribosome-mediated readthrough activity in rabbit reticulocyte lysate assessed as suppression of G542X mutation after 90 mins by dual luciferase reporter gene assay; settings: Oryctolagus cuniculus
Ribosome [3] = test: Induction of ribosome-mediated readthrough activity in rabbit reticulocyte lysate assessed as suppression of W1282X mutation after 90 mins by dual luciferase reporter gene assay; settings: Oryctolagus cuniculus
Ribosome [4] = test: Induction of ribosome-mediated readthrough activity in rabbit reticulocyte lysate assessed as suppression of R3381X mutation after 90 mins by dual luciferase reporter gene assay; settings: Oryctolagus cuniculus
[5] = biological target: T1, 80S Ribosome (Homo sapiens) (UniProt P08865+P42677+P62753+P15880+P23396+P61247+P62701+P22090+P46782+P62081+P62241+P46781+P46783+P62280+P25398+P62277+P62263+P62841+P62244+P62249+P08708+P62269+P39019+P60866+P63220+P62266+P62847+P62851+P62854+P62979+P62857+P62273+P62861+P39023+P36578+P46777+Q02878+P18124+P62424+P62917+P32969+P27635+P62906+P62913+P30050+P26373+P40429+P50914+P61313+P18621+Q07020+Q02543+P84098+P46778+P35268+P62829+P62750+P83731+P61254+P61353+P46776+P46779+P47914+P62888+P62899+P62910+P49207+P42766+P18077+Q9Y3U8+P83881+P61927+P61513+P63173+P62891+P62945+P05388+P05386); test: Induction of ribosome-mediated readthrough activity in R3X-transfected HEK293 cells assessed as suppression of R3X mutation after 16 hrs by dual luciferase reporter gene assay; assay type: cell-based
[6] = biological target: T1, 80S Ribosome (Homo sapiens); test: Induction of ribosome-mediated readthrough activity in R245X-transfected HEK293 cells assessed as suppression of R245X mutation after 16 hrs by dual luciferase reporter gene assay; assay type: cell-based
[7] = biological target: T1, 80S Ribosome (Homo sapiens); test: Induction of ribosome-mediated readthrough activity in Q70X-transfected HEK293 cells assessed as suppression of Q70X mutation after 16 hrs by dual luciferase reporter gene assay; assay type: cell-based
[8] = biological target: T1, 80S Ribosome (Homo sapiens); test: Induction of ribosome-mediated readthrough activity in W1282X-transfected HEK293 cells assessed as suppression of W1282X mutation after 16 hrs by dual luciferase reporter gene assay; assay type: cell-based
[9] = Cytotoxicity against HEK293 cells; assay type: cell-based; settings: human, read-out: LC50 (the source's name)
[10] = (§1) Cytotoxicity against HFF; assay type: cell-based; settings: human, HFF cells; read-out: LC50 (the source's name)
Ribosome [11] = test: Inhibition of ribosome-mediated translation in prokaryotic system
Escherichia coli = test: Antibacterial activity against Escherichia coli R477/100 by double microdilution method; assay type: functional
Bacillus spizizenii = test: Antibacterial activity against Bacillus subtilis ATCC 6633 by double microdilution method; assay type: functional
Ribosome [12] = test: Induction of ribosome-mediated readthrough activity in rabbit reticulocyte lysate assessed as suppression of R3X mutation after 90 mins by dual luciferase reporter gene assay; settings: Oryctolagus cuniculus
Ribosome [13] = test: Induction of ribosome-mediated readthrough activity in rabbit reticulocyte lysate assessed as suppression of Q70X mutation after 90 mins by dual luciferase reporter gene assay; settings: Oryctolagus cuniculus
HFF = test: as §1; assay type: cell-based; settings: human, hff; read-out: LC50 (the source's name)

| Molecule | Activity (Ribosome [1]) | Activity (Ribosome [2]) | Activity (Ribosome [3]) | Activity (Ribosome [4]) | Activity [5] | Activity [6] | Activity [7] | Activity [8] | CC50 [9] [mM] | CC50 [10] [mM] | IC50 (Ribosome [11]) [nM] | MIC (Escherichia coli) [µM] | MIC (Bacillus spizizenii) [µM] | Activity (Ribosome [12]) | Activity (Ribosome [13]) | CC50 (HFF) [mM] |
| --- | --- | --- | --- | --- | --- | --- | --- | --- | --- | --- | --- | --- | --- | --- | --- | --- |
| C[C@H](N)[C@H]1O[C@@H](O[C@@H]2[C@@H](O)[C@H](NC(=O)[C@@H](O)CCN)C[C@H](N)[C@H]2O[C@H]2O[C@H](CO)[C@@H](O)[C@H](O)[C@H]2N)[C@H](O)[C@@H]1O | Active | Active | Active | Active | Active | Active | Active | Active | 10.1 | 8.1 | 2270 | 1070 (≈ 608 µg/mL) | 33 (≈ 18.8 µg/mL) | – | – | – |
| GENTAMICIN SULFATE [listing 1 of 2 here] | Active | Active | Active | Active | Active | Active | Active | Active | – | – | – | – | < 0.75 | Active | Active | – |
| NCC[C@H](O)C(=O)N[C@@H]1C[C@H](N)[C@@H](O[C@H]2O[C@H](CO)[C@@H](O)[C@H](O)[C@H]2N)[C@H](O[C@@H]2O[C@H](CN)[C@@H](O)[C@H]2O)[C@H]1O | Active | Active | Active | Active | Active | Active | Active | Active | – | 7.8 | 160 | – | 70 (≈ 38.9 µg/mL) | – | – | – |
| C[C@H](N)[C@H]1O[C@@H](O[C@@H]2[C@@H](O)[C@H](N)C[C@H](N)[C@H]2O[C@H]2O[C@H](CO)[C@@H](O)[C@H](O)[C@H]2N)[C@H](O)[C@@H]1O | Active | Active | Active | Active | – | – | – | – | 23.5 | 21.8 | 1960 | 2660 (≈ 1250 µg/mL) | 83 (≈ 38.9 µg/mL) | Active | Active | – |
| C[C@@H](N)[C@H]1O[C@@H](O[C@@H]2[C@@H](O)[C@H](N)C[C@H](N)[C@H]2O[C@H]2O[C@H](CO)[C@@H](O)[C@H](O)[C@H]2N)[C@H](O)[C@@H]1O | Active | Active | Active | Active | – | – | – | – | 19.8 | 20.1 | 2130 | 4990 (≈ 2340 µg/mL) | 78 (≈ 36.5 µg/mL) | Active | Active | – |
| C[C@@H](N)[C@H]1O[C@@H](O[C@@H]2[C@@H](O)[C@H](NC(=O)[C@@H](O)CCN)C[C@H](N)[C@H]2O[C@H]2O[C@H](CO)[C@@H](O)[C@H](O)[C@H]2N)[C@H](O)[C@@H]1O | Active | Active | Active | Active | Active | Active | Active | Active | 13.9 | 19.3 | 811 | 1060 (≈ 602 µg/mL) | 33 (≈ 18.8 µg/mL) | – | – | – |
| NC[C@@H]1O[C@H](O[C@H]2[C@@H](O)[C@H](O[C@@H]3[C@@H](O)[C@H](N)C[C@H](N)[C@H]3O[C@H]3O[C@H](CO)[C@@H](O)[C@H](O)[C@H]3N)O[C@@H]2CO)[C@H](N)[C@@H](O)[C@@H]1O [PAROMOMYCIN SULFATE] | – | – | – | – | – | – | – | – | 4.1 | 3.1 | 51 | – | 1.2 | – | – | – |
| GENTAMICIN SULFATE [listing 2 of 2 here] | – | – | – | – | – | – | – | – | – | – | 28 | – | – | – | – | 3.2 |
| NC[C@H]1O[C@@H](O[C@@H]2[C@@H](O)[C@H](N)C[C@H](N)[C@H]2O[C@H]2O[C@H](CO)[C@@H](O)[C@H](O)[C@H]2N)[C@H](O)[C@@H]1O | – | – | – | – | – | – | – | – | – | 21.8 | 460 | – | 100 (≈ 45.4 µg/mL) | – | – | – |

Source: ChEMBL document CHEMBL3217644, “Repairing faulty genes by aminoglycosides: Identification of new pharmacophore with enhanced suppression of disease-causing nonsense mutations” (Medchemcomm, 2011)
